In patent publication US8227472B2, “Substituted pyrrolo-pyrazole derivatives as kinase inhibitors” (Nerviano Medical Sciences S.R.L., priority 2006, dated 2012) one finds IC50 data, which are given here for six compounds.

For one test, the target named is T1, PLK-1 (Homo sapiens, UniProt P53350).
T1 construct: His tag (N, cleaved yes); TEV cleavage site (N, cleaved yes); made in house; host or cells: High5 insect cells (baculovirus generated in Sf9)
In words: Biochemical assay for inhibitors of PLK-1 kinase activity (33P trans-phosphorylation, Dowex). To be noted: PLK-1 3 nM, 40 microM ATP, 85 microM alpha-casein. An excerpt:
Cloning, Expression and Purification of Recombinant PLK1 Kinase Domain.
PLK1 kinase domain (corresponding to residues 2-345 of the full length sequence, see Swiss-Prot accession number P53350) was PCR amplified from the full-length human PLK1 gene purchased from imaGenes as clone IRATp970A078D.
For cloning purposes, the oligonucleotides included attB sites in order to obtain an attB-flanked PCR product suitable for cloning using the Gateway® technology (Invitrogen). Furthermore, for purification purposes, forward primer included a TEV® cleavage site (Amersham Biosciences). The resulting PCR product was cloned in the pDONR221 plasmid and then transferred in the baculovirus expression vector pVL1393 (Invitrogen) Gateway®-modified. For expression and purification purposes, a His tag was added N-terminal to the PLK kinase domain. Cloning was performed according to the protocols described in the Gateway® manual.
Baculoviruses were generated by cotransfecting Sf9 insect cells with the expression vector and the viral DNA using the BaculoGold® transfection kit (Pharmingen). Viral supernatant was recovered after 5 days and subjected to 3 rounds of amplification to increase viral titer. Recombinant protein was produced by infecting High5 insect cells. After 48 hours of infection, cells were recovered, pelletted and freezed at −80° C. For purification of recombinant protein, pellet was thawed, resuspended in lysis buffer (PBS, NaCl 150 mM, CHAPS 0.1%, DTT 20 mM, glycerol 10%, protease inhibitors) and lysed by sonication. Lysate was cleared by centrifugation and loaded on a Nichel affinity column. After extensive wash, recombinant protein was cleaved and eluted by incubation with TEV® protease.
Biochemical Assay for Inhibitors of PLK-1 Kinase Activity
The inhibitory activity of putative kinase inhibitors and the potency of selected compounds were determined using a trans-phosphorylation assay.
Specific peptide or protein substrates are trans-phosphorylated by their specific serine-threonine or tyrosine kinase, in the presence of ATP traced with ^33P-γ-ATP, and in the presence of their own optimal buffer and cofactors.
At the end of the phosphorylation reaction, more than 98% cold ATP and radioactive ATP is captured by an excess of the ion exchange dowex resin; the resin then settles down to the bottom of the reaction plate by gravity.
Supernatant, containing the phosphorylated substrate, is subsequently withdrawn and transferred into a counting plate, then evaluated by β-counting.
Kinase buffer was composed of 50 mM HEPES pH 7.9 containing 10 mM MnCl2, 1 mM DTT, 3 microM NaVO3, and 0.2 mg/mL BSA, 10 mM β-glycerophosphate.
The kinase assay was run with a final enzyme concentration PLK-1 of 3 nM, in presence of 40 microM ATP, 3 nM ^33P-γ-ATP and 85 microM substrate alpha-casein, SIGMA, #C-3240.
1) 3× Enzyme mix (done in Kinase Buffer 3×), 5 microL/well
2) 3× substrate and ATP mix (done in ddH2O), together with ^33P-γ-ATP, 5 microL/well
3) 3× test compounds (diluted into ddH2O—3% DMSO)—5 microL/well
For % inhibition studies, individual dilution plates at 1 mM, 100 microM and 10 microM are prepared in 100% DMSO, then diluted at a 3× concentration (30, 3 and 0.3 microM) in ddH2O, 3% DMSO. A Multimek 96 (Beckman) is used for dilutions and compound pipetting into the test plates
For IC50 determination, compounds are received as 1 mM, 100% DMSO solutions, plated into the first column of a microtiter plate (A1 to G1), 100 microL.
A Biomek 2000 (Beckman) is used for serial 1:3 dilutions in water, 3% DMSO, from column A1 to A10 and for all the seven compounds in the plate. In a standard experiment, the highest concentration of all compounds is 30 microM, then diluted in the final test mixture down to 10 microM. […]

The subject of test [1] is A2780 human ovarian cancer cells. As to the kind of experiment: In vitro cell proliferation assay, A2780 (CellTiter-Glo). In kind it is cell-based. To be noted: 72 hours. As for the experimental part: In Vitro Cell Proliferation Assay
A2780 human ovarian and MCF7 human breast cancer cells (1250 cells/well) were seeded in white 384 well-plates in complete medium (RPMI1640 or EMEM plus 10% Fetal bovine serum) and treated with compounds dissolved in 0.1% DMSO, 24 h after seeding. The cells were incubated at 37° C. and 5% CO2 and after 72 hours the plates were processed using CellTiter-Glo assay (Promega) following the manufacturer's instruction.
CellTiter-Glo is a homogenous method based on the quantification of the ATP present, an indicator of metabolitically active cells. ATP is quantified using a system based on luciferase and D-luciferin resulting into light generation. The luminescent signal is proportional to the number of cells present in culture.
Briefly 25 microL/well reagent solution are added to each wells and after 5 minutes shacking microplates are red by a luminometer. The luminescent signal is proportional to the number of cells present in culture.
A general note: ATP-based viability assays read luminescence as a measure of living cells.

Each structure is given as a SMILES string.

T1 sequence (P53350 2-345): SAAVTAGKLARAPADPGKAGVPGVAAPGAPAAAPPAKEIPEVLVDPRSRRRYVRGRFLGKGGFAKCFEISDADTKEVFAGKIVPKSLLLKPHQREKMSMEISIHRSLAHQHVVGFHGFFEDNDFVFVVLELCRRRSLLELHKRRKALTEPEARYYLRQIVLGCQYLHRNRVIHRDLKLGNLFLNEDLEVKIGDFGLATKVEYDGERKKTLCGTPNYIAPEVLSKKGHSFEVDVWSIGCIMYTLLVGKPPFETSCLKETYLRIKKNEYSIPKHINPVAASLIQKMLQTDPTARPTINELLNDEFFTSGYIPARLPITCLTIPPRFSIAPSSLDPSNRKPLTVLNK

The term IC50 denotes the concentration at which inhibition is half-maximal. Consider `CC1(C)c2[nH]nc(NC(=O)c3cccc(N)c3)c2CN1C(=O)Nc1c(Cl)cccc1Cl` [Compound 250, 3-[(3-aminobenzoyl)amino]-N-(2,6-dichlorophenyl)-6,6-dimethyl-4,6-dihydropyrrolo[3,4-c]pyrazole-5(1H)-carboxamide], for which the IC50 worked out at 30 nM against PLK-1 and 119 nM in test [1].
Take `CN1CCN(c2ccc(C(=O)Nc3n[nH]c4c3CN(C(=O)Cc3cccs3)C4(C)C)cc2)CC1` [Compound 60, N-[6,6-dimethyl-5-(2-thienylacetyl)-1,4,5,6-tetrahydropyrrolo[3,4-c]pyrazol-3-yl]-4-(4-methylpiperazin-1-yl)benzamide]: the IC50 against PLK-1 was found to be 52 nM; in test [1], 71 nM.
On the same counts, the results for `CC1(C)c2[nH]nc(NC(=O)c3ccc(N)cc3)c2CN1C(=O)Nc1c(Cl)cccc1Cl` [Compound 251, 3-[(4-aminobenzoyl)amino]-N-(2,6-dichlorophenyl)-6,6-dimethyl-4,6-dihydropyrrolo[3,4-c]pyrazole-5(1H)-carboxamide] are 24 nM and 63 nM.
For `Cc1ccc(C(=O)Nc2n[nH]c3c2CN(C(=O)Nc2c(Cl)cccc2Cl)C3(C)C)cc1` [Compound 64, N-(2,6-dichlorophenyl)-6,6-dimethyl-3-[(4-methylbenzoyl)amino]-4,6-dihydropyrrolo[3,4-c]pyrazole-5(1H)-carboxamide], the IC50 at PLK-1 was 230 nM; in test [1] it was 209 nM.
Regarding `CCc1ccccc1NC(=O)N1Cc2c(NC(=O)c3ccc(N4CCN(C)CC4)cc3)n[nH]c2C1(C)C` [Compound 178, N-(2-ethylphenyl)-6,6-dimethyl-3-{[4-(4-methylpiperazin-1-yl)benzoyl]amino}-4,6-dihydropyrrolo[3,4-c]pyrazole-5(1H)-carboxamide], the IC50 against PLK-1 amounted to 96 nM; in test [1] it was 19 nM.
On the same counts, the results for `CN1CCN(c2ccc(C(=O)Nc3n[nH]c4c3CN(C(=O)Cc3ccccc3C(F)(F)F)C4(C)C)cc2)CC1` [Compound 44, N-(6,6-dimethyl-5-{[2-(trifluoromethyl)phenyl]acetyl}-1,4,5,6-tetrahydropyrrolo[3,4-c]pyrazol-3-yl)-4-(4-methylpiperazin-1-yl)benzamide] are 75 nM and 380 nM.
